Results reported in patent US20120323012A1, “4-(AZACYCLOALKYL) -BENZENE-1,3-DIOL DERIVATIVES AS TYROSINASE INHIBITORS AND THEIR SYNTHESIS AND USE THEREOF” (GALDERMA RESEARCH & DEVELOPMENT, priority 2009, published 2012).

Assays:
tyrosinase = target: T1, tyrosinase (Mus musculus, UniProt P11344); assay: Tyrosinase activity inhibition test (B16F1 cell lysate, L-tyrosine/MBTH, 520 nm); type: biochemical, murine; details: lysate of B16F1 cells, 6 hours incubation at 37° C.; read-out: Tyrosine hydroxylase/Dopa oxidase IC50
T1 construct: the supernatant obtained constituted the cell lysate used as the source of tyrosinase in the enzymatic test; endogenous in cells; host or cells: B16F1 murine melanoma cells, stimulated with alpha-MSH; detergent lysate supernatant
T1 sequence (P11344 19-533): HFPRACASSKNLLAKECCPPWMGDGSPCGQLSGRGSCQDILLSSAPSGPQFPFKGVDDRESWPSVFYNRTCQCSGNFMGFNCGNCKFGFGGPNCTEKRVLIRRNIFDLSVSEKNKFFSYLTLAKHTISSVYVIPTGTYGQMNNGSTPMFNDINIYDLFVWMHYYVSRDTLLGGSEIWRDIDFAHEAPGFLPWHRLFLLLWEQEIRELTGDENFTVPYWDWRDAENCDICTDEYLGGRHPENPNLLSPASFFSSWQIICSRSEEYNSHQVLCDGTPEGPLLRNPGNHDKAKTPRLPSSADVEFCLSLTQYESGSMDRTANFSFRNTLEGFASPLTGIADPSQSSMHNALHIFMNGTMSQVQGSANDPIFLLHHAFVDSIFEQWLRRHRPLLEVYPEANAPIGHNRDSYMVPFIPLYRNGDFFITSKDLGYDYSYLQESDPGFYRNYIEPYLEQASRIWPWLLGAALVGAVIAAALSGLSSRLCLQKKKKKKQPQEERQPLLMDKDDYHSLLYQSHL
Description: The activity of the inhibitors was measured using a lysate of B16F1 cells (murine melanoma line). In the presence of L-tyrosine substrate, the tyrosinase present in these cells catalyses the hydroxylation of L-tyrosine to L-DOPA then oxidation of the L-DOPA to dopaquinone. In the presence of MBTH (3-methyl-2-benzo-thiazolinone hydrazone), dopaquinone is trapped to form a pink complex which absorbs at 520 nm.
The B16F1 cells were cultivated in DMEM medium+10% foetal calf serum+10^−9 M of αMSH for 4 days at 37° C. under 7% CO2. They were treated with trypsin, washed with PBS, counted and centrifuged. The pellet was taken up in an amount of 10^7 cells/mL in lysis buffer (sodium phosphate, 10 mM pH 6.8-Igepal 1%) and the suspension was treated with ultrasound for 10 seconds. After centrifuging for 30 minutes at 4000 rpm, the supernatant obtained constituted the cell lysate used as the source of tyrosinase in the enzymatic test.
The tests were carried out in duplicate in 384-well plates with a total volume of 50 μl. Each well contained: […]
The plate was incubated at 37° C. and a spectrographic recording was produced at 520 nm after 6 hours incubation. In order to compensate for any absorption by the products, a corrected absorbance was used (absorbance at time 6 h−absorbance at time zero). […]

[1] = test system: MNT1 human melanoma cells; assay: Melanogenesis inhibition test (14C-thiouracil incorporation normalized by 3H-leucine); type: cell-based; details: MNT-1, 24 h incubation, 14C incorporation normalized by 3H incorporation
Description: (§1) The inhibition of melanogenesis was measured in MNT1 human melanoma cells using a protocol adapted from Reigner et al, Cell Mol Biol (1999) 45: 969-980. The test was based on the concomitant incorporation of 2 radiolabelled tracers: ^14C-thiouracil is incorporated into neosynthesized melanin and reflects melanogenesis, while ^3H-leucine is incorporated into proteins and reflects cell viability and, as a result, the toxicity of the test compounds.
(§2) The MNT1 cells were plated into 96-well plates in the presence of the test compounds and radioisotopes. After 24 h incubation at 37° C., the cells were washed and the quantity of the 2 radioisotopes was measured. The test compounds were dose-response tested in order to calculate the IC50 inhibition of melanogenesis on the basis of the ^14C incorporation which was normalized by the ^3H incorporation. A cell toxicity IC50 was also calculated on the basis of the ^3H incorporation.

[2] = Cell toxicity (3H-leucine incorporation) in the melanogenesis inhibition test; type: cell-based; details: human, MNT1 human melanoma cells, 24 h incubation
Description: as §1, §2

| SMILES | IC50 (tyrosinase) [µM] | IC50 [1] [µM] | IC50 at 24 h [2] [µM] | melting point [°C] |
| --- | --- | --- | --- | --- |
| Cc1ccc(S(=O)(=O)N2CCC(c3ccc(O)cc3O)CC2)cc1 [Compound 2, 4-[1-(toluene-4-sulphonyl)piperidin-4-yl]-benzene-1,3-diol] | 1.5 |  |  |  |
| CCCCc1ccc(O)cc1O [4-butylresorcinol (Rucinol), 4-butylresorcinol, reference compound] | 3 | 15 | 55 |  |
| O=S(=O)(Cc1ccccc1)N1CCC(c2ccc(O)cc2O)CC1 [Compound 1, 4-(1-phenylmethanesulphonylpiperidin-4-yl)-benzene-1,3-diol] |  | 0.2 | > 999 | 207 to 208 |
